Assay results from patent EP1274675B1, “COMPOUNDS, COMPOSITIONS AND METHODS FOR PREVENTING NEURODEGENERATION IN ACUTE AND CHRONIC INJURIES IN THE CENTRAL NERVOUS SYSTEM” (Neurotech Co., Ltd., priority 2000, dated 2001).

Tests used:
[1] = tested on: Mouse cortical cell cultures; assay: Zn^2+ neurotoxicity in cortical cell cultures (LDH release); type: cell-based; settings: for neuroprotective effect against Zn^2+ neurotoxicity relative to BAS: comparison in words
Experimental: (§1) Primary cortical cell cultures from embryonic mice were prepared and used to examine neuroprotective action of compounds. Mouse cortical cell culture system has been extensively used to study mechanisms and pharmacological intervention of neuronal death in neurological diseases. In brief, mouse cerebral cortices were removed from brains of the 15 day-old-fetal mice, in accordance with a protocol approved by our institutional animal care committee. […] After 7 days in vitro (DIV 7), cultures were shifted into a growth medium identical to the plating medium but lacking fetal serum. At DIV 7 - 9, […] cytosine arabinofuranoside was included to halt overgrowth of glia. Mixed cultures of neurons and glia were then fed twice a week.

[2] = tested on: Mouse cortical cell cultures; assay: NMDA neurotoxicity in cortical cell cultures (LDH release); type: cell-based; settings: for neuroprotective effect against NMDA neurotoxicity relative to BAS: comparison in words
Experimental: as §1

[3] = tested on: Mouse cortical cell cultures; assay: Fe^2+-induced free radical neurotoxicity in cortical cell cultures (LDH release); type: cell-based; settings: for prevention of free radical neurotoxicity relative to BAS / protection against free radical neurotoxicity relative to NBAS: comparison in words; for effect on Fe^2+-induced free radical neurotoxicity: 10 µM compound; for effect on Fe^2+-induced free radical neurotoxicity / effect on Fe^2+-induced neuronal death: continuous 50 µM Fe^2+; for effect on Fe^2+-induced neuronal death: 1 µM compound
Experimental: as §1

[4] = DPPH anti-oxidant assay (decrease in DPPH absorption at 517 nm); type: biochemical; settings: mean ± SEM, n = 3, DPPH alone 1.2
Experimental: To examine anti-oxidant effect, DPPH (2,2-diphenyl-1-picryl-hydrazyl radical), a stable free radical, was dissolved in ethanol to make a 100 µM solution. A compound was reacted with DPPH or ethanol. After incubation for 30 min, relative decrease in DPPH absorption at 517 nm was measured by a spectrophotometer.

[5] = 300 µM compound, 300 µM NMDA for 10 min, in words
[6] = 100 µM compound reacted with 100 uM DPPH in ethanol for 30 min
[7] = 10 µM compound reacted with 100 uM DPPH in ethanol for 30 min
[8] = 30 µM compound reacted with 100 uM DPPH in ethanol for 30 min
[9] = 300 µM compound reacted with 100 uM DPPH in ethanol for 30 min

Nc1ccc(O)c(C(=O)O)c1 [AS, 5-amino salicylic acid]
effect on neuronal death after exposure to Zn^2+ ([1]; 10 - 300 µM compound during and post Zn^2+ treatment, 300 µM Zn^2+ for 30 min, in words): not reduced
effect on NMDA-induced neuronal death ([2]; 10 - 300 µM compound, 300 µM NMDA for 10 min, in words): did not attenuate
effect on free radical neurotoxicity following exposure to Fe^2+ ([3]; 10 - 100 µM compound, 24 hr-exposure to 50 µM Fe^2+, in words): dose-dependently prevented

O=C(O)c1cc(NCc2ccc(Cl)cc2)ccc1O [CBAS, 5-(4-chlorobenzyl)aminosalicylic acid]
neuroprotective effect against Zn^2+ neurotoxicity relative to BAS [1]: did not reduce neuroprotective effects of BAS
neuroprotective effect against NMDA neurotoxicity relative to BAS [2]: did not reduce neuroprotective effects of BAS
prevention of free radical neurotoxicity relative to BAS [3]: more potent than BAS

CCOC(=O)c1cc(NCc2ccc([N+](=O)[O-])cc2)ccc1O [NAHE, 5-(4-nitrobenzyl)amino-2-hydroxy ethylbenzoate]
effect on NMDA neurotoxicity [2, 5]: attenuated
effect on Fe^2+-induced free radical neurotoxicity ([3]; in words): blocked

O=C(Nc1ccc(O)c(C(=O)O)c1)c1ccc([N+](=O)[O-])cc1 [NBAA, 5-(4-nitrobenzoyl)aminosalicylic acid]
effect on NMDA neurotoxicity ([2]; 30 µM compound, 300 µM NMDA for 10 min, in words): significantly attenuated
change of protective effect against NMDA with higher doses ([2]; above 30 µM up to 300 µM, in words): not further increased
protection against free radical neurotoxicity relative to NBAS [3]: weaker than NBAS
A517nm [4, 6]: 0.42 ± 0.22

O=C(O)c1cc(NCc2ccc([N+](=O)[O-])cc2)ccc1O [NBAS, 5-(4-nitrobenzyl)aminosalicylic acid]
neuroprotective effect against Zn^2+ neurotoxicity relative to BAS [1]: did not reduce neuroprotective effects of BAS
neuroprotective effect against NMDA neurotoxicity relative to BAS [2]: did not reduce neuroprotective effects of BAS
prevention of free radical neurotoxicity relative to BAS [3]: more potent than BAS
A517nm [4, 7]: 0.37±0.1
A517nm [4, 8]: 0.04 ± 0.01
A517nm [4, 6]: 0.04±0.00
A517nm [4, 9]: 0.04±0.00

O=C(O)c1cc(NS(=O)(=O)c2ccc([N+](=O)[O-])cc2)ccc1O [NBSAA, 5-(4-nitrobenzenesulfonyl)aminosalicylic acid]
effect on NMDA neurotoxicity [2, 5]: markedly reduced
effect on NMDA neurotoxicity ([2]; 30 - 300 µM compound, 300 µM NMDA for 10 min, in words): attenuated NMDA neurotoxicity in a dose-dependent manner
protection against free radical neurotoxicity relative to NBAS [3]: weaker than NBAS
A517nm [4, 6]: 0.15 ± 0.05

CCOC(=O)c1cc(N(Cc2ccc([N+](=O)[O-])cc2)C(C)=O)ccc1OC(C)=O [NNAAE, 5-(4-nitrobenzyl)-N-acetylamino-2-acetoxy ethylbenzoate]
effect on NMDA neurotoxicity [2, 5]: attenuated
effect on Fe^2+-induced free radical neurotoxicity ([3]; in words): blocked

CCOC(=O)c1cc(N(Cc2ccc([N+](=O)[O-])cc2)C(C)=O)ccc1O [NNAHE, 5-(4-nitrobenzyl)-N-acetylamino-2-hydroxy ethylbenzoate]
effect on NMDA neurotoxicity [2, 5]: attenuated
effect on Fe^2+-induced free radical neurotoxicity ([3]; in words): blocked

O=C(O)c1cc(NCCc2ccc([N+](=O)[O-])cc2)ccc1O [NPAA, 5-[2-(4-nitrophenyl)-ethyl]aminosalicylic acid]
effect on NMDA neurotoxicity [2, 5]: slightly reduced
effect on Fe^2+-induced neuronal death ([3]; in words): complete blockade
protection against free radical neurotoxicity relative to NBAS [3]: more effective than NBAS
A517nm [4, 6]: 0.09 ± 0.01

O=C(O)c1cc(NCCCc2ccc([N+](=O)[O-])cc2)ccc1O [NPPAA, 5-[3-(4-nitrophenyl)-n-propyl]aminosalicylic acid]
effect on NMDA neurotoxicity [2, 5]: slightly reduced
effect on Fe^2+-induced neuronal death ([3]; in words): complete blockade
protection against free radical neurotoxicity relative to NBAS [3]: more effective than NBAS
A517nm [4, 6]: 0.09 ± 0.02

O=C(O)c1cc(NCc2c(F)c(F)c(F)c(F)c2F)ccc1O [PBAS, 5-(pentafluorobenzyl)aminosalicylic acid]
inhibition at 300 µM ([2]; Mus musculus, 300 µM compound, 300 µM NMDA for 10 min, LDH 24 hr later, read-out: reduction of NMDA-induced neuronal death): ~65%

O=C(O)c1cc(NCc2ccc(C(F)(F)F)cc2)ccc1O [TBAS, 5-(4-trifluoromethylbenzyl)aminosalicylic acid]
neuroprotective effect against Zn^2+ neurotoxicity relative to BAS [1]: did not reduce neuroprotective effects of BAS
neuroprotective effect against NMDA neurotoxicity relative to BAS [2]: did not reduce neuroprotective effects of BAS
prevention of free radical neurotoxicity relative to BAS [3]: more potent than BAS

Cc1c(C)c2c(c(C)c1O)CCC(C)(C(=O)O)O2 (centres unmarked) [Trolox, trolox]
A517nm ([4]; 3 µM compound reacted with 100 uM DPPH in ethanol for 30 min): 1.08±0.1
A517nm [4, 7]: 0.89±0.08
A517nm [4, 8]: 0.39±0.06
A517nm [4, 6]: 0.05±0.01
A517nm [4, 9]: 0.03±0.01
